What was measured:
[1] = target: T1, recombinant guanylate cyclase reporter cell line (Rattus norvegicus, UniProt P19686+P20595); experiment: Action on recombinant guanylate cyclase reporter cell line; format: cell-based
T1 construct: expressed in transfected cells
T1 sequence (P20595 1-619): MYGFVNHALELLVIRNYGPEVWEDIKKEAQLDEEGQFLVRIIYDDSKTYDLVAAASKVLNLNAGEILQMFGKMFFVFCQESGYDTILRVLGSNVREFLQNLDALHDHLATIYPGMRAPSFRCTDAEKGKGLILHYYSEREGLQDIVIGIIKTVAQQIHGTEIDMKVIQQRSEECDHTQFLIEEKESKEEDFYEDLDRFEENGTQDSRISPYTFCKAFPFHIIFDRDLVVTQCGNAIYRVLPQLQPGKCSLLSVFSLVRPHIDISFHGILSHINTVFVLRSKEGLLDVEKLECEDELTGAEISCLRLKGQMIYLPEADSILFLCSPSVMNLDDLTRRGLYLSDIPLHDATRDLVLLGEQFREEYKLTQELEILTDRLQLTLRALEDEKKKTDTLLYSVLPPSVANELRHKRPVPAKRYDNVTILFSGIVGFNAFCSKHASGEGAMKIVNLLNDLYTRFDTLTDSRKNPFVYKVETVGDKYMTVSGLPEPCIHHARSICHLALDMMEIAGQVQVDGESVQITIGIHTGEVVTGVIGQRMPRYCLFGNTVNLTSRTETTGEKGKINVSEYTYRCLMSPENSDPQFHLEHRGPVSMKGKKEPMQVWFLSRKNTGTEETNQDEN
T1 sequence (P19686 1-690): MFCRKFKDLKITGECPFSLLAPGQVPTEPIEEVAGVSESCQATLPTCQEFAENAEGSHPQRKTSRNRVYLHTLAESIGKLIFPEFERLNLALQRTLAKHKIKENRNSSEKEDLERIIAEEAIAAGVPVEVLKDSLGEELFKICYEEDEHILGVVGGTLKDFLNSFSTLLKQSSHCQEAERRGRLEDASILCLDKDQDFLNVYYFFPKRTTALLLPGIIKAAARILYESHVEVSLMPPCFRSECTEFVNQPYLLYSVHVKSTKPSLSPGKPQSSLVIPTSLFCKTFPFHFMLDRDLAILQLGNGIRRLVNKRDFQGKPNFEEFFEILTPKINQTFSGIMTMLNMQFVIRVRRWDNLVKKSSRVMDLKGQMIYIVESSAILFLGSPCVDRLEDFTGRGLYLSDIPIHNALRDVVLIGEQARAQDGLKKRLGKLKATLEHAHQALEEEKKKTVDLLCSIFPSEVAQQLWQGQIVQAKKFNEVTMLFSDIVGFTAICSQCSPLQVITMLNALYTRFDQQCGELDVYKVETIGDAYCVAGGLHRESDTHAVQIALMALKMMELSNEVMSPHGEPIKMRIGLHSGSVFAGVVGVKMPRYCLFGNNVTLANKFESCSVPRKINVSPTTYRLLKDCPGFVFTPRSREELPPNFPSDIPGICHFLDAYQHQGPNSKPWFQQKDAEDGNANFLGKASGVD
Description: B-2. Action on Recombinant Guanylate Cyclase Reporter Cell Line
The cellular action of the compounds according to the invention is determined on a recombinant guanylate cyclase reporter cell line, as described in F. Wunder et al., Anal. Biochem. 339, 104-112 (2005).

[2] = target: T2, human phosphodiesterase 5 (PDE-5) (Homo sapiens, UniProt O76074); experiment: Inhibition of human phosphodiesterase 5 (PDE-5), SPA assay; format: biochemical; settings: PDE-5 preparation from human platelets, [8-3H]cGMP substrate
T2 construct: PDE-5 preparations are obtained from human platelets by lysis; from tissue; host or cells: human platelets
Description: B-6. Inhibition of Human Phosphodiesterase 5 (PDE-5)
PDE-5 preparations are obtained from human platelets by lysis (Microfluidizer®, 800 bar, 3 passages), followed by centrifugation (75000 g, 60 min, 4° C.) and ion-exchange chromatography of the supernatant on a Mono Q 10/10 column (linear sodium chloride gradient, elution with a 0.2-0.3M solution of sodium chloride in buffer (20 mM Hepes pH 7.2, 2 mM magnesium chloride). Fractions that have PDE-5 activity are combined (PDE-5 preparation) and stored at −80° C.
For determining their in-vitro action on human PDE-5, the test substances are dissolved in 100% DMSO and serial dilutions are prepared. Typically, dilution series (1:3) from 200 μM to 0.091 μM are prepared (resultant final concentrations in the test: 4 μM to 0.0018 μM). In each case 2 μL of the diluted solutions of the substance are put in the wells of microtitre plates (Isoplate-96/200W; Perkin-Elmer). Then 50 μL of a dilution of the PDE-5 preparation described above is added. The dilution of the PDE-5 preparation is selected so that during subsequent incubation less than 70% of the substrate is reacted (typical dilution: 1:100; dilution buffer: 50 mM Tris/hydrochloric acid pH 7.5, 8.3 mM magnesium chloride, 1.7 mM EDTA, 0.2% BSA). The substrate [8-^3H]cyclic guanosine-3′,5′-monophosphate (1 μCi/μL; Perkin-Elmer) is diluted 1:2000 with assay buffer (50 mM Tris/hydrochloric acid pH 7.5, 8.3 mM magnesium chloride, 1.7 mM EDTA) to a concentration of 0.0005 μCi/μL. The enzyme reaction is finally started by adding 50 μL (0.025 μCi) of the diluted substrate. The test preparations are incubated for 60 min at room temperature and the reaction is stopped by adding 25 μL of a suspension of 18 mg/mL of Yttrium Scintillation Proximity Beads in water (phosphodiesterase beads for SPA assays, RPNQ 0150, Perkin-Elmer). The microtitre plates are sealed with film and left to stand for 60 min at room temperature. Then the plates are measured for 30 s per well in a Microbeta scintillation counter (Perkin-Elmer). IC50 values are determined on the basis of the graphs plotted of the substance concentration versus the percentage PDE-5 inhibition.

Row | MEC (minimal effective concentration) [1] | IC50 [2] | Compound
1 | 0.1 μm | 83 nM | CC1(C)C(=O)Nc2nc(-c3nn(Cc4ccccc4F)c4ncccc34)nc(NCCn3ccnn3)c21 [Example 47, 2-[1-(2-fluorobenzyl)-1H-pyrazolo[3,4-b]pyridin-3-yl]-5,5-dimethyl-4-{[2-(1H-1,2,3-triazol-1-yl)ethyl]amino}-5,7-dihydro-6H-pyrrolo[2,3-d]pyrimidin-6-one]
2 | 0.1 μm | 54 nM | Cn1ccc(CNc2nc(-c3nn(Cc4ccccc4F)c4ncccc34)nc3c2C(C)(C)C(=O)N3)n1 [Example 48, 2-[1-(2-fluorobenzyl)-1H-pyrazolo[3,4-b]pyridin-3-yl]-5,5-dimethyl-4-{[(1-methyl-1H-pyrazol-3-yl)methyl]amino}-5,7-dihydro-6H-pyrrolo[2,3-d]pyrimidin-6-one]
3 | 0.1 μm | 40 nM | Cc1cc(Nc2nc(-c3nn(Cc4ccccc4F)c4ncccc34)nc3c2C(C)(C)C(=O)N3)nn1C [Example 50, 4-[(1,5-dimethyl-1H-pyrazol-3-yl)amino]-2-[1-(2-fluorobenzyl)-1H-pyrazolo[3,4-b]pyridin-3-yl]-5,5-dimethyl-5,7-dihydro-6H-pyrrolo[2,3-d]pyrimidin-6-one]
4 | 0.03 μm | 5 nM | CC1(C)C(=O)Nc2nc(-c3nn(Cc4ccccc4F)c4ncccc34)nc(N[C@@H]3CCCOC3)c21 [Example 51, 2-[1-(2-fluorobenzyl)-1H-pyrazolo[3,4-b]pyridin-3-yl]-5,5-dimethyl-4-(tetrahydro-2H-pyran-3-ylamino)-5,7-dihydro-6H-pyrrolo[2,3-d]pyrimidin-6-one]
5 | 0.01 μm | 34 nM | CC1(C)C(=O)Nc2nc(-c3nn(Cc4ccccc4F)c4ncccc34)nc(N3CCC(O)CC3)c21 [Example 52, 2-[1-(2-fluorobenzyl)-1H-pyrazolo[3,4-b]pyridin-3-yl]-4-(4-hydroxypiperidin-1-yl)-5,5-dimethyl-5,7-dihydro-6H-pyrrolo[2,3-d]pyrimidin-6-one]
6 | 3.0 μm | 150 nM | COC1CN(c2nc(-c3nn(Cc4ccccc4F)c4ncccc34)nc3c2C(C)(C)C(=O)N3)C1 [Example 53, 2-[1-(2-fluorobenzyl)-1H-pyrazolo[3,4-b]pyridin-3-yl]-4-(3-methoxyazetidin-1-yl)-5,5-dimethyl-5,7-dihydro-6H-pyrrolo[2,3-d]pyrimidin-6-one]
7 | 0.03 μm | 130 nM | CC1(C)C(=O)Nc2nc(-c3nn(Cc4ccccc4F)c4ncccc34)nc(NCc3ccccn3)c21 [Example 55, 2-[1-(2-fluorobenzyl)-1H-pyrazolo[3,4-b]pyridin-3-yl]-5,5-dimethyl-4-[(pyridin-2-ylmethyl)amino]-5,7-dihydro-6H-pyrrolo[2,3-d]pyrimidin-6-one]
8 | 0.03 μm | 34 nM | COCCNc1nc(-c2nn(Cc3ccccc3F)c3ncccc23)nc2c1C(C)(C)C(=O)N2 [Example 56, 2-[1-(2-fluorobenzyl)-1H-pyrazolo[3,4-b]pyridin-3-yl]-4-[(2-methoxyethyl)amino]-5,5-dimethyl-5,7-dihydro-6H-pyrrolo[2,3-d]pyrimidin-6-one]
9 | 0.03 μm | 270 nM | CC1(C)C(=O)Nc2nc(-c3nn(Cc4ccccc4F)c4ncccc34)nc(NCCn3cccn3)c21 [Example 58, 2-[1-(2-fluorobenzyl)-1H-pyrazolo[3,4-b]pyridin-3-yl]-5,5-dimethyl-4-{[2-(1H-pyrazol-1-yl)ethyl]amino}-5,7-dihydro-6H-pyrrolo[2,3-d]pyrimidin-6-one]
10 | 0.1 μm | 8 nM | Cn1cc(CNc2nc(-c3nn(Cc4ccccc4F)c4ncccc34)nc3c2C(C)(C)C(=O)N3)cn1 [Example 59, 2-[1-(2-fluorobenzyl)-1H-pyrazolo[3,4-b]pyridin-3-yl]-5,5-dimethyl-4-{[(1-methyl-1H-pyrazol-4-yl)methyl]amino}-5,7-dihydro-6H-pyrrolo[2,3-d]pyrimidin-6-one]
11 | 0.3 μm | 430 nM | Cn1ccnc1CNc1nc(-c2nn(Cc3ccccc3F)c3ncccc23)nc2c1C(C)(C)C(=O)N2 [Example 60, 2-[1-(2-fluorobenzyl)-1H-pyrazolo[3,4-b]pyridin-3-yl]-5,5-dimethyl-4-{[(1-methyl-1H-imidazol-2-yl)methyl]amino}-5,7-dihydro-6H-pyrrolo[2,3-d]pyrimidin-6-one]
12 | 0.03 μm | 100 nM | CCN(CCOC)c1nc(-c2nn(Cc3ccccc3F)c3ncccc23)nc2c1C(C)(C)C(=O)N2 [Example 61, 4-[ethyl(2-methoxyethyl)amino]-2-[1-(2-fluorobenzyl)-1H-pyrazolo[3,4-b]pyridin-3-yl]-5,5-dimethyl-5,7-dihydro-6H-pyrrolo[2,3-d]pyrimidin-6-one]
13 | 0.1 μm | 480 nM | Cc1nccn1-c1nc(-c2nn(Cc3ccccc3F)c3ncccc23)nc2c1C(C)(C)C(=O)N2 [Example 62, 2-[1-(2-fluorobenzyl)-1H-pyrazolo[3,4-b]pyridin-3-yl]-5,5-dimethyl-4-(2-methyl-1H-imidazol-1-yl)-5,7-dihydro-6H-pyrrolo[2,3-d]pyrimidin-6-one]
14 | 0.03 μm | 230 nM | CC(C)CCNc1nc(-c2nn(Cc3ccccc3F)c3ncccc23)nc2c1C(C)(C)C(=O)N2 [Example 63, 2-[1-(2-fluorobenzyl)-1H-pyrazolo[3,4-b]pyridin-3-yl]-5,5-dimethyl-4-[(3-methylbutyl)amino]-5,7-dihydro-6H-pyrrolo[2,3-d]pyrimidin-6-one]
15 | 0.1 μm | 980 nM | CC1(C)C(=O)Nc2nc(-c3nn(Cc4ccccc4F)c4ncccc34)nc(N3CCCC3)c21 [Example 64, 2-[1-(2-fluorobenzyl)-1H-pyrazolo[3,4-b]pyridin-3-yl]-5,5-dimethyl-4-(pyrrolidin-1-yl)-5,7-dihydro-6H-pyrrolo[2,3-d]pyrimidin-6-one]
16 | 0.1 μm | 430 nM | CC1(C)C(=O)Nc2nc(-c3nn(Cc4ccccc4F)c4ncccc34)nc(Nc3cccnc3)c21 [Example 65, 2-[1-(2-fluorobenzyl)-1H-pyrazolo[3,4-b]pyridin-3-yl]-5,5-dimethyl-4-(pyridin-3-ylamino)-5,7-dihydro-6H-pyrrolo[2,3-d]pyrimidin-6-one]

Source: patent US8859569B2, “Substituted annellated pyrimidines and use thereof” (Bayer Pharma Aktiengesellschaft, priority 2011, dated 2014)
